Results taken from article PMC7465886, “4-(N-Alkyl- and -Acyl-amino)-1,2,4-triazole-3-thione Analogs as Metallo-β-Lactamase Inhibitors: Impact of 4-Linker on Potency and Spectrum of Inhibition” (Biomolecules, 2020).

Molecular target: NDM-1 (Klebsiella pneumoniae, UniProt C7C422)
Experiment: MBL inhibition, reporter substrate method, NDM-1
Format: biochemical
Method: Compounds were prepared in DMSO at a final concentration of 50 mM prior to dilution in the assay buffer. The reaction rate was measured as the variation of absorbance observed upon substrate hydrolysis in a UV-Vis spectrophotometer or microplate reader at a wavelength of 300 nm (imipenem, meropenem), 260 nm (cefotaxime), or 482 nm (nitrocefin) and in the presence of a purified MBL enzyme (such as VIM-1, VIM-2, VIM-4, NDM-1, and IMP-1, at a final concentration ranging from 1 to 70 nM).
These enzymes were overproduced in derivatives of E. coli BL21(DE3) carrying a pET-9 a (IMP-1, VIM-1, VIM-2, and VIM-4) or pET-15 b (NDM-1) vector into which the metallo-β-lactamase-encoding open reading frame was cloned. Bacterial strains were grown in the auto-inducing medium, ZYP-5052, supplemented with 50 μg/mL kanamycin for 24 h at 37 °C [38]. IMP-1, VIM-1, VIM-2, and VIM-4 were purified by ion-exchange and gel filtration chromatography using an AKTA Purifier platform (GE Healthcare, Uppsala, Sweden) as previously described. NDM-1 (residues 37-270) was produced as an amino-terminal 6 xHis-tag fusion protein and was purified using affinity chromatography. After growth for 26 h at 25 °C, bacterial cells were harvested by centrifugation (10,000× g, 30 min, 4 °C), resuspended in 10 mM HEPES buffer (pH 7.5) containing 0.15 M NaCl (buffer A) in one-fifth of the original culture volume, and lysed by sonication. Cellular debris was removed by centrifugation (12,000× g, 40 min, 4 °C). The clarified sample was loaded on a HisTrap HP column (bed volume, 5 mL; GE Healthcare), followed by a wash step (25 mL) with buffer A containing 20 mM imidazole. Proteins were eluted using buffer A containing 350 mM imidazole. The resulting protein sample was desalted (HiPrep 26/10 Desalting column, GE Healthcare) using 20 mM triethanolamine (pH 7.2) supplemented with 50 μM ZnSO4 and concentrated using an Amicon Ultra-15 (MW cut-off, 10 kDa; Millipore, Burlington, MA, USA). The concentrated sample was loaded on a Superdex 75 prep grade column (XK16/100 column; bed volume, 140 mL; GE Healthcare) and the proteins eluted with buffer A containing 50 μM ZnSO4. The active fractions were pooled and stored at −20 °C. The purity of the protein preparations was estimated >95% by SDS-PAGE analysis. The authenticity of the enzyme preparations was confirmed by electron spray ionization mass spectrometry, as previously described.
The inhibition constants (Ki) were determined on the basis of a model of competitive inhibition by analyzing the dependence of the ratio v0/vi (v0, hydrolysis velocity in the absence of inhibitor; vi, hydrolysis velocity in the presence of inhibitor) as a function of [I] as already described. The slope of the plot of v0/vi vs. [I], which corresponds to Km^S/(Km^S + [S])Ki (where Km^S is the Km value of the reporter substrate and [S] its concentration in the reaction mixture) and allowed the calculation of the Ki value. Alternatively, a Dixon plot analysis was carried out by measuring the initial hydrolysis rates in the presence of variable concentrations of inhibitor and substrate. This allowed Ki values to be determined and supported the hypothesis that the various compounds behaved as competitive inhibitors of the various tested enzymes. The assays were performed in triplicate.

NDM-1, sequence (C7C422 37-270 limits assumed): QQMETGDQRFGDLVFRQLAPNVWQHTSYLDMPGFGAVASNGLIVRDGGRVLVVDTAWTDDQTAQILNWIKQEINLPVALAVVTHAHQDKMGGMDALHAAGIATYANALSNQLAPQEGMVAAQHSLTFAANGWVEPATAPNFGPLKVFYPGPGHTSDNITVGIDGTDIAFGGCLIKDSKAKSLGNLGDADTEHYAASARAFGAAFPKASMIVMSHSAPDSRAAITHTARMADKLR

In the case of O=C(O)c1ccccc1CNn1c(-c2ccccc2)n[nH]c1=S [Compound 1], the “Inhibition of NDM-1 (in words)” value is reported as “inactive” and the inhibition at 100 µM (read-out: Inhibition of NDM-1 (dash in Ki column)) is reported as < 40%.
